In article PMC11335189, “Revealing molecular determinants governing mambalgin-3 pharmacology at acid-sensing ion channel 1 variants” (Cellular and Molecular Life Sciences: CMLS, 2024):
Positions of bridges follow the written chain, without caps; N, C: chain ends. No end group written: not given here.

Target: T1, rASIC1a E362R (Rattus norvegicus, UniProt P55926, E362R)
T1 construct: expressed in transfected cells; host or cells: Xenopus laevis oocytes (cRNA injection)
T1 sequence (P55926 1-526 E362R): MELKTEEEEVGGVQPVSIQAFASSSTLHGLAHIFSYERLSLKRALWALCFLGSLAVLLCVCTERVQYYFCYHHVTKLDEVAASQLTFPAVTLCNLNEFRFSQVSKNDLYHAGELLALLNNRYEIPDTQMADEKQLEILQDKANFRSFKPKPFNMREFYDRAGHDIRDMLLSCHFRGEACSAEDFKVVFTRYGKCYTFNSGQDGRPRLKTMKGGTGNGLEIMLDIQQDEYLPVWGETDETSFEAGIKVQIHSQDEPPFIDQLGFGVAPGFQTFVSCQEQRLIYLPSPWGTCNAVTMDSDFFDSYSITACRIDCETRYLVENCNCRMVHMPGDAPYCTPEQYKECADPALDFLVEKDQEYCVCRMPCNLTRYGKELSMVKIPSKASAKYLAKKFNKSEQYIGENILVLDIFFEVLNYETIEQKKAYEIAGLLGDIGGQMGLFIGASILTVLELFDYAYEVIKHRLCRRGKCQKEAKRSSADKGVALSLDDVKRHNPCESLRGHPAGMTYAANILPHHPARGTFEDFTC
Assay: TEVC oocytes, rASIC1a E362R mutant
Type: cell-based
Conditions: conditioning pH 7.45, stimulating pH 6
Procedure: Two-electrode voltage-clamp (TEVC) experiments using Xenopus laevis oocytes were conducted as previously described. Briefly, oocytes were surgically removed from anaesthetised female frogs, then treated with collagenase (~ 1 mg/ml, Sigma type I) for 2 h under agitation at room temperature. cRNAs were synthesised using a mMessage mMachine T7 or SP6 transcription kit (Thermo Fisher Scientific Australia Pty Ltd, Scoresby, VIC, Australia) and injected into healthy stage V–VI oocytes at 0.2–20 ng per cell. […] Membrane currents were recorded 2–7 days after cRNA-injection under voltage-clamp at -60 mV (Axon Axoclamp 900 A, Molecular Devices, CA, USA) using two standard glass microelectrodes of 0.5–1 MΩ resistance when filled with 3 M KCl solution. […]
Specific to this work, the standard protocol was for oocytes to be conditioned at pH 7.45 and channels stimulated every 60 s using a 5 s pH 5 or 6 application, unless stated otherwise. […] Activation curves were determined by conditioning oocytes at pH 8 (Fig. 2e − g; and Fig. 5a and b) or 7.45 (Fig. 6; and Supplementary Fig. 2d and c) for 55 s and applying low pH stimuli from 7.25 to 5.0 for 5 s. Steady-state desensitisation (SSD) was determined by applying conditioning solutions of pH values from 8 to 6 for 115 s prior to stimulation by a pH drop to 5 for 5 s. […] Control pH-dependence curves were determined in the absence of any Ma-3. […]

Q: How did the “decrease in Ma-3 activity relative to wild-type rASIC1a” value turn out when “H-SLKCYQHGKVVTCHRDMKFCYHNIGMPFRNLKLILQGCSSSCSETENNKCCSTDRCNK (disulfide 4-20, 13-38, 42-50, 51-56 (inferred)) [Ma-3, mambalgin-3]” was run?
A: ~ 5 fold
